Laboratory results: PubChem BioAssay (NCI)
Several values for one entry are separate records, joined by “and”; a condition that tells them apart may be missing. Equal values may be shown once.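 Following 48 hours of exposure in 96-well plates, responses at five concentrations were used to interpolate endpoints linearly. GI50 = concentration required for 50% inhibition of growth. The concentration for full growth arrest is given as TGI.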

Legend:
Test in all cases: growth of human tumour cells (NCI), 48 h
[1] = tested on: A498 renal
[2] = tested on: LOX IMVI melanoma
[3] = tested on: NCI-H226 lung
[4] = tested on: NCI-H460 lung
[5] = tested on: RXF 393 renal
[6] = tested on: SF-268 CNS
[7] = tested on: SN12C renal
[8] = tested on: U251 CNS
[9] = tested on: UACC-257 melanoma
[10] = tested on: UACC-62 melanoma

Structure (SMILES)	GI50 [1]	TGI [1]	GI50 [2]	TGI [2]	GI50 [3]	TGI [3]	GI50 [4]	TGI [4]	GI50 [5]	TGI [5]	GI50 [6]	TGI [6]	GI50 [7]	TGI [7]	GI50 [8]	TGI [8]	GI50 [9]	TGI [9]	GI50 [10]	TGI [10]
CCOC(=O)C1=C(C)NC2SC(=O)/C(=C\c3ccccc3)N2C1c1ccccc1 (stereo not given)	> 100 µM	> 100 µM	> 100 µM	> 100 µM	> 100 µM	> 100 µM	93.5 µM	> 100 µM	> 100 µM	> 100 µM	> 100 µM	> 100 µM	> 100 µM	> 100 µM	> 100 µM	> 100 µM	> 100 µM	> 100 µM	> 100 µM	> 100 µM
COc1cc(C2CC(c3cc(C)ccc3C)=NN2c2ccc(S(=O)(=O)NC(=O)NCc3ccccc3)cc2)cc(OC)c1OC (stereo not given)	3.09 µM	9.03 µM	3.79 µM	> 100 µM	3.63 µM	15.6 µM	2.54 µM	6.48 µM	2.9 µM	8.17 µM	4.9 µM	34.8 µM	3.15 µM	18.1 µM	3.31 µM	17.3 µM	3.53 µM	20.1 µM	1.98 µM	4.48 µM
COc1cc([C@@H]2c3cc4c(cc3[C@H](O)[C@H]3COC(=O)[C@H]23)OCO4)cc(OC)c1OC	< 0.01 µM	–	< 0.01 µM	> 100 µM and 50 µM	< 0.01 µM	–	< 0.005 µM	> 100 µM and 50 µM and > 7.95 µM	< 0.01 µM	–	< 0.01 µM	> 63.4 µM and 50 µM and > 39.2 µM	< 0.005 µM	> 100 µM and 35 µM	< 0.005 µM	> 100 µM and 50 µM and > 7.6 µM	–	> 100 µM and 50 µM	< 0.01 µM	> 100 µM and 34.7 µM
CC1OC(OC2CC(O)C3(CO)C4C(O)CC5(C)C(C6=CC(=O)OC6)CCC5(O)C4CCC3(O)C2)C(O)C(O)C1O (stereo not given)	< 0.0183 µM	0.102 µM	< 0.0196 µM	0.0457 µM	0.0167 µM	0.0646 µM	< 0.0111 µM	0.0174 µM	< 0.0129 µM	< 0.0202 µM	< 0.0142 µM	0.0236 µM	–	0.0228 µM	0.0219 µM	0.0683 µM	0.0237 µM	0.105 µM	0.0381 µM	0.173 µM
CCOC(=O)C(=O)N=Nc1nc2c(O)c3ccccc3c(O)c2s1	–	38.2 µM	–	3.88 µM	–	30.2 µM	–	26.7 µM	–	9.55 µM	–	10.8 µM	–	3.46 µM	–	14.1 µM	–	3.75 µM	–	11.5 µM
CC1=C(c2cc(C(=O)Nc3ccc(Cl)c(Cl)c3)nc(N)n2)Sc2ccccc2N1	–	> 100 µM	–	> 100 µM	–	> 100 µM	–	> 100 µM	–	> 100 µM	–	> 100 µM	–	> 100 µM	–	> 100 µM	–	> 100 µM	–	> 100 µM
CC[O-].Cc1ccc2cccc([O-])c2n1.Cc1ccc2cccc([O-])c2n1.Cc1ccc2cccc([O-])c2n1.[Ti+4]	> 63.2 µM	> 100 µM	18.2 µM	47.9 µM	> 59.6 µM	> 100 µM	20.2 µM	> 100 µM	30.9 µM	70.9 µM	> 83.5 µM	> 100 µM	65.3 µM	> 100 µM	18.3 µM	50.4 µM	18.6 µM	> 85 µM	> 35.3 µM	> 52.2 µM
CC[CH2][Sn]([Cl])([Cl])[CH2]CC	1.54 µM	3.62 µM	2.8 µM	11.4 µM	4.02 µM	16.5 µM	17.2 µM	34.3 µM	6.96 µM	20.6 µM	9.63 µM	22.5 µM	7.08 µM	20.2 µM	3.9 µM	16.5 µM	4.59 µM	19.2 µM	4.19 µM	17.5 µM
CNc1ccc(-c2cc(=O)oc3ccc(Cl)cc23)cc1	0.0811 µM and 0.0598 µM	–	0.0636 µM and 0.0542 µM	> 100 µM	0.719 µM and 4.05 µM	> 100 µM	0.0487 µM and 0.0441 µM	> 100 µM	0.0912 µM	> 100 µM	0.247 µM and 0.066 µM	> 100 µM	–	> 100 µM	0.175 µM and 0.0472 µM	> 100 µM	> 100 µM	> 100 µM	0.0369 µM and 0.0431 µM	89.7 µM
COC(=O)Nc1nc2cc3c(cc2s1)OCCO3	> 50 µM	> 50 µM	> 50 µM	> 50 µM	> 50 µM	> 50 µM	> 50 µM	> 50 µM	> 50 µM	> 50 µM	> 50 µM	> 50 µM	> 50 µM	> 50 µM	> 50 µM	> 50 µM	> 50 µM	> 50 µM	> 50 µM	> 50 µM
OC(COc1cccc2ccccc12)CN1CCN(c2ccccc2)CC1 (stereo not given)	13.5 µM	26.4 µM	15.8 µM	31.1 µM	14.7 µM	29.7 µM	15.9 µM	31 µM	18.2 µM	32.9 µM	16.4 µM	31.3 µM	16.4 µM	31 µM	17.3 µM	32.1 µM	16 µM	30.1 µM	14.1 µM	28.5 µM
N#Cc1c(-c2ccccc2)cc(-c2ccccc2)n(CCCCC(=O)NO)c1=O	1.25 µM	3.55 µM	1.71 µM	3.22 µM	3.98 µM	19 µM	3.71 µM	15.2 µM	1.43 µM	3.36 µM	2.71 µM	7.9 µM	2.95 µM	11.5 µM	2.79 µM	11.1 µM	2.15 µM	12.4 µM	2.2 µM	6.02 µM
COC(=O)c1ccc([N+](=O)[O-])c(O)c1	–	> 100 µM	–	> 100 µM	–	> 100 µM	–	> 100 µM	–	> 100 µM	–	> 100 µM	–	> 100 µM	–	> 100 µM	–	> 100 µM	–	> 100 µM
CN(C)CCCNc1nccc(-c2c(-c3ccc(F)cc3)nn3cc(C(F)(F)F)ccc23)n1	6.53 µM	> 25 µM	5.06 µM	15.2 µM	3.72 µM	11.2 µM	6.97 µM	> 25 µM	3.34 µM	9.6 µM	9.79 µM	> 25 µM	15.3 µM	> 25 µM	10.7 µM	> 25 µM	4.22 µM	8.42 µM	4.88 µM	11.1 µM
CC(=O)OCC1OC(OC2=C(CC=C(Cl)Cl)C(=O)c3ccccc3C2=O)C(OC(C)=O)C(OC(C)=O)C1OC(C)=O (stereo not given)	3.32 µM	20 µM	1.71 µM	3.56 µM	15.6 µM	50.5 µM	12.5 µM	34.4 µM	2.53 µM	8.01 µM	2.75 µM	8.03 µM	5.62 µM	18.7 µM	3.54 µM	13.3 µM	8.45 µM	21.4 µM	2.85 µM	11.2 µM
C#COc1cccc(Nc2ncnc3ncc(NC(=O)CCl)cc23)c1	> 62.5 µM	> 62.5 µM	–	> 28 µM	> 62.5 µM	> 62.5 µM	–	> 62.5 µM	> 62.5 µM	> 62.5 µM	> 22.3 µM	> 62.5 µM	–	> 62.5 µM	> 13.3 µM	> 34.5 µM	> 62.5 µM	> 62.5 µM	> 36.1 µM	> 62.5 µM
CC(=O)OC1CCC2(C)C(=CCC3C2CCC2(C)C(C(C)C(=O)O)CCC32)C1 (stereo not given)	–	> 100 µM	–	> 100 µM	–	> 100 µM	–	> 100 µM	–	> 100 µM	–	> 100 µM	–	> 100 µM	–	> 100 µM	–	> 100 µM	–	> 100 µM
CC[C@H](C)n1cc(C)c2c(C(=O)NCc3c(C)cc(C)[nH]c3=O)cc(-c3ccc(N4CCNCC4)nc3)cc21	15.4 µM and 12.6 µM	30 µM and 26.9 µM	8.89 µM and 6.3 µM	21.8 µM and 19.4 µM	16.3 µM and 17.3 µM	36.5 µM and 36.9 µM	12.3 µM and 12.5 µM	24.7 µM and 26 µM	9 µM and 7.71 µM	23.7 µM and 23.2 µM	14.7 µM and 13 µM	29.8 µM and 27.8 µM	13.8 µM and 13.7 µM	27.9 µM and 28.6 µM	10.9 µM and 10.2 µM	23.1 µM and 22.7 µM	16.5 µM and 14.8 µM	31.5 µM and 29.5 µM	17.5 µM and 14.3 µM	33.2 µM and 28.5 µM
CC(=O)OC(C)(C)N=Nc1ccc(Br)cc1	–	> 100 µM	–	33.7 µM	–	> 50.5 µM	–	26 µM	–	> 60.4 µM	–	> 100 µM	–	> 100 µM	–	> 100 µM	–	66.2 µM	–	> 100 µM
CCc1c(Cl)nc(Cl)nc1Cl	–	16.8 µM	–	1.54 µM	–	0.283 µM	–	10.4 µM	–	0.968 µM	–	2.03 µM	–	1.39 µM	–	0.92 µM	–	2.79 µM	–	2.28 µM
Oc1cc(O)c2c(=S)cc(-c3ccc(Cl)cc3)oc2c1	1.22 µM	11.7 µM	2.92 µM	11.6 µM	4.97 µM	32.5 µM	2.96 µM	13.3 µM	3.15 µM	12.5 µM	3.23 µM	21.3 µM	2.78 µM	11.1 µM	3.24 µM	11.3 µM	2.75 µM	7.96 µM	3.01 µM	14.2 µM
CC1=C([Se]CC(OC(=O)[C@@H](CO)NC(=O)OC(C)(C)C)C(=O)NC(C)(C)C)C(=O)c2ccccc2C1=O (stereo not given in full)	3.64 µM	15.2 µM	1.6 µM	3.02 µM	1.96 µM	4.21 µM	0.456 µM	1.8 µM	1.86 µM	3.28 µM	1.89 µM	3.34 µM	1.85 µM	3.41 µM	0.986 µM	2.56 µM	1.74 µM	3.23 µM	1.66 µM	3.05 µM
COc1c(CNC(=O)CCl)cc2[nH]c(C)cc2c1CNC(=O)CCl	4.29 µM	19.1 µM	3.17 µM	31.8 µM	9.2 µM	73.7 µM	3.73 µM	15.6 µM	3.5 µM	14.1 µM	3.44 µM	21.7 µM	4.92 µM	39.9 µM	1.94 µM	4.7 µM	6.8 µM	36.5 µM	1.28 µM	4.11 µM
CCC[CH2][Sn]([CH2]CCC)([O]C(=O)c1nccnc1N)[O]C(=O)c1nccnc1N	0.819 µM	2.07 µM	0.365 µM	1.48 µM	1.33 µM	2.63 µM	1.63 µM	3.33 µM	0.187 µM	1.31 µM	0.64 µM	1.97 µM	0.791 µM	2.04 µM	0.478 µM	1.65 µM	1.03 µM	2.23 µM	0.998 µM	2.16 µM
O=S1(=O)CS(=O)(=O)OCCCO1	–	> 100 µM	–	> 100 µM	–	> 100 µM	–	> 100 µM	–	> 100 µM	–	> 100 µM	–	> 100 µM	–	> 100 µM	–	> 100 µM	–	> 100 µM
O=C1/C(=C\c2coc3ccccc3c2=O)c2ccccc2N1c1c(Cl)cccc1Cl	4.35 µM	> 100 µM	1.52 µM	8.91 µM	20.7 µM	> 100 µM	2.05 µM	16.3 µM	1.86 µM	5.11 µM	3.41 µM	> 100 µM	3.35 µM	> 100 µM	1.45 µM	35.6 µM	4.59 µM	> 100 µM	2.13 µM	> 100 µM
C=C1CCC2C3(C)COC(c4ccc(SC)cc4)OC3CCC2(C)C1C/C=C1/C(=O)OCC1O (stereo not given)	8.64 µM	22.4 µM	1.44 µM	3.01 µM	7.85 µM	25.7 µM	8.78 µM	22.3 µM	4.51 µM	15.6 µM	6.8 µM	19.9 µM	3.94 µM	18.6 µM	2.29 µM	5.7 µM	4.17 µM	17.4 µM	5.45 µM	20.4 µM
